Experimental data taken from US20220380347A1, “INHIBITORS OF CYSTEINE PROTEASES AND METHODS OF USE THEREOF” (Pardes Biosciences, Inc., priority 2020, published 2022).
Read-outs that look alike come from different tables or passages of the source.

Assays:
[1] = target: COVID-19 (nCoV-2019, SARS-CoV2) Mpro (Severe acute respiratory syndrome coronavirus 2, UniProt P0DTD1); assay: COVID-19 (nCoV-2019, SARS-CoV2) Mpro enzymatic assay; assay type: biochemical; conditions: 25 nM Mpro, 25 μM substrate; read-out: COVID-19 Mpro IC50
HCov OC43 = assay: HCoV OC43 cytopathic effect (CPE) assay, CellTiter Glo; assay type: cell-based, human coronavirus (HCov) OC43
229E Mpro = 229E Mpro (Human coronavirus 229E, UniProt P0C6X1); assay: 229E Mpro enzymatic assay (standard methods, SARS-CoV2 Mpro assay given as exemplary); assay type: biochemical, human coronavirus (HCov) 229E
Chain of 229E Mpro (P0C6X1 2966-3267): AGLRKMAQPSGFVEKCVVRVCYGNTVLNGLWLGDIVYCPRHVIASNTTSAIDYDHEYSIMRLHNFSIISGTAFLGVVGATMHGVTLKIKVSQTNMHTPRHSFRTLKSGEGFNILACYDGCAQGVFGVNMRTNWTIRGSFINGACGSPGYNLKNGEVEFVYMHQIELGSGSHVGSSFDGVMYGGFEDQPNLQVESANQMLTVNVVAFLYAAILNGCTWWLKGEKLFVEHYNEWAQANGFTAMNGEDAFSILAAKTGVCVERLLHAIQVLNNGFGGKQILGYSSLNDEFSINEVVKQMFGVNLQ
Outline: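 IC50 for 229E Mpro by standard methods; exemplary SARS-CoV-2 protocol used C-His6-tagged Mpro from E. coli, 25 nM enzyme, 25 μM substrate (Km 13.5 μM), in Tris-HCl pH 7.3, NaCl, EDTA, TCEP, 0.1% BSA. Inhibition normalised to no-compound and full-effect controls; four-parameter fit.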

[2] = read-out: OC43 IC50 (uM) MEDIAN, median
[3] = Betacoronavirus 1, OC43, read-out: OC43 IC50 (uM) MEDIAN, median

Compound | IC50 [1] | IC50 (HCov OC43; [2]) | EC50 (229E Mpro; 229E Mpro EC50) | other results
C[C@@]1(O)C[C@H](C(=O)N(c2ccc(-c3ccccc3)cc2)C(C(=O)NC2CCC(F)(F)CC2)c2cncc(F)c2)N(C#N)C1 (single isomer, unassigned) [1330 Isomer 1] | < 2 µM | < 2 µM | < 2 µM | 
C[C@@]1(O)C[C@H](C(=O)N(c2ccc(-c3ccccc3)cc2)C(C(=O)NC2CCC(F)(F)CC2)c2cncc(F)c2)N(C#N)C1 (single isomer, unassigned) [1330 Isomer 2] | 2 to 10 µM | 10 to 30 µM | 2 to 10 µM | 
O=C(NC1CCC(F)(F)CC1)C(c1cncc(F)c1)N(C(=O)c1cnc[nH]1)c1ccc(C2CC2)cc1F (single isomer, unassigned) [1336 Isomer 1, N-(4-cyclopropyl-2-fluorophenyl)-N-(2-((4,4-difluorocyclohexyl)amino)-1-(5-fluoropyridin-3-yl)-2-oxoethyl)-1H-imidazole-5-carboxamide] | 10 to 30 µM |  | 2 to 10 µM | IC50 (HCov OC43; [3]): > 30 µM
O=C(NC1CCC(F)(F)CC1)C(c1cncc(F)c1)N(C(=O)c1cnc[nH]1)c1ccc(C2CC2)cc1F (single isomer, unassigned) [1336 Isomer 2, N-(4-cyclopropyl-2-fluorophenyl)-N-(2-((4,4-difluorocyclohexyl)amino)-1-(5-fluoropyridin-3-yl)-2-oxoethyl)-1H-imidazole-5-carboxamide] | 10 to 30 µM | > 30 µM | 10 to 30 µM | 
O=C(NC1CCC(F)(F)CC1)C(c1cncc(F)c1)N(C(=O)c1cnc[nH]1)c1ccc(S(F)(F)(F)(F)F)cc1 (single isomer, unassigned) [1337 Isomer 1, N-[2-[(4,4-difluorocyclohexyl)amino]-1-(5-fluoro-3-pyridyl)-2-oxo-ethyl]-N-[4-(pentafluoro-λ6-sulfanyl)phenyl]-1H-imidazole-5-carboxamide] | 10 to 30 µM |  | 2 to 10 µM | IC50 (HCov OC43; [3]): > 30 µM
O=C(NC1CCC(F)(F)CC1)C(c1cncc(F)c1)N(C(=O)c1cnc[nH]1)c1ccc(S(F)(F)(F)(F)F)cc1 (single isomer, unassigned) [1337 Isomer 2, N-[2-[(4,4-difluorocyclohexyl)amino]-1-(5-fluoro-3-pyridyl)-2-oxo-ethyl]-N-[4-(pentafluoro-λ6-sulfanyl)phenyl]-1H-imidazole-5-carboxamide] | 10 to 30 µM | > 30 µM |  | EC50 (229E Mpro; read-out: 229E Mpro EC50): 2 to 10 µM
C[C@H](NC(=O)C(c1cncc(F)c1)N(C(=O)[C@H]1C[C@@](C)(O)CN1C#N)c1ccc(-c2ccccc2)cc1)c1ccccc1 (single isomer, unassigned) [1345 Isomer 1] | < 2 µM | < 2 µM | < 2 µM | 
C[C@H](NC(=O)C(c1cncc(F)c1)N(C(=O)[C@H]1C[C@@](C)(O)CN1C#N)c1ccc(-c2ccccc2)cc1)c1ccccc1 (single isomer, unassigned) [1345 Isomer 2] | 2 to 10 µM | 10 to 30 µM | 10 to 30 µM | 
C[C@H](NC(=O)C(c1cccnc1)N(C(=O)c1ccco1)c1ccc(-c2ccccc2)cc1)c1ccccc1 (single isomer, unassigned) [1353 Isomer 1] | < 2 µM |  | < 2 µM | IC50 (HCov OC43; [3]): > 30 µM
C[C@H](NC(=O)C(c1cccnc1)N(C(=O)c1ccco1)c1ccc(-c2ccccc2)cc1)c1ccccc1 (single isomer, unassigned) [1353 Isomer 2] | > 30 µM | > 30 µM | > 30 µM | 
C[C@H](NC(=O)C(c1cnccn1)N(C(=O)c1ccco1)c1ccc(-c2ccccc2)cc1)c1ccccc1 (single isomer, unassigned) [1355 Isomer 1] | < 2 µM |  | 2 to 10 µM | IC50 (HCov OC43; [3]): > 30 µM
C[C@H](NC(=O)C(c1cnccn1)N(C(=O)c1ccco1)c1ccc(-c2ccccc2)cc1)c1ccccc1 (single isomer, unassigned) [1355 Isomer 2] | < 2 µM | > 30 µM |  | EC50 (229E Mpro; read-out: 229E Mpro EC50): 2 to 10 µM
CC(C)(C)c1ccc(N(C(=O)[C@H]2CCC(C)(C)N2C#N)C(C(=O)NC2CCCCC2)c2cccnc2)cc1 (single isomer, unassigned) [Compound 262 Isomer 1] | > 30 µM |  | > 30 µM | IC50 (HCov OC43; read-out: OC43 IC50 (uM) MEDIAN, median, listed as 262 Isomer 1): > 30 µM
CC(C)(C)c1ccc(N(C(=O)[C@H]2CCC(C)(C)N2C#N)C(C(=O)NC2CCCCC2)c2cccnc2)cc1 (single isomer, unassigned) [Compound 262 Isomer 2] | 2 to 10 µM |  | < 2 µM | IC50 (HCov OC43; read-out: OC43 IC50 (uM) MEDIAN, median, listed as 262 Isomer 2): 10 to 30 µM
CC(C)(C)c1ccc(N(C(=O)[C@H]2CC(=O)CN2C#N)C(C(=O)NC2CCCCC2)c2cccnc2)cc1 (single isomer, unassigned) [Compound 278 Isomer 1] | 2 to 10 µM |  | < 2 µM | IC50 (HCov OC43; [3]): 10 to 30 µM
CC1(O)C[C@H](C(=O)N(c2ccc(C(C)(C)C)cc2)C(C(=O)NC2CCCCC2)c2cccnc2)N(C#N)C1 (single isomer, unassigned) [Compound 284 Isomer 1] | 2 to 10 µM |  |  | IC50 (HCov OC43; read-out: OC43 IC50 (uM) MEDIAN, median, listed as 284 Isomer 1): 10 to 30 µM; EC50 (229E Mpro; read-out: 229E Mpro EC50): < 2 µM

Compound | IC50 [1] | IC50 (HCov OC43; [2]) | EC50 (229E Mpro; 229E Mpro EC50) | other results
CO[C@@H]1C[C@H](C(=O)N(c2ccc(C(C)(C)C)cc2)C(C(=O)NC2CCCCC2)c2cccnc2)N(C#N)C1 (single isomer, unassigned) [Compound 292 Isomer 1] | 2 to 10 µM |  | < 2 µM | IC50 (HCov OC43; [3]): 2 to 10 µM
CO[C@H]1C[C@H](C(=O)N(c2ccc(C(C)(C)C)cc2)C(C(=O)NC2CCCCC2)c2cccnc2)N(C#N)C1 (single isomer, unassigned) [Compound 293 Isomer 2] | 10 to 30 µM |  | 2 to 10 µM | IC50 (HCov OC43; read-out: OC43 IC50 (uM) MEDIAN, median, listed as 293 Isomer 2): 10 to 30 µM
CC(C)(C)O[C@@H]1C[C@H](C(=O)N(c2ccc(C(C)(C)C)cc2)C(C(=O)NC2CCCCC2)c2cccnc2)N(C#N)C1 (single isomer, unassigned) [Compound 299 Isomer 1] | 10 to 30 µM |  | 10 to 30 µM | IC50 (HCov OC43; read-out: OC43 IC50 (uM) MEDIAN, median, listed as 299 Isomer 1): 10 to 30 µM
CC(C)(C)c1ccc(N(C(=O)[C@H]2C[C@H](Oc3ccccc3)CN2C#N)C(C(=O)NC2CCCCC2)c2cccnc2)cc1 (single isomer, unassigned) [Compound 308 Isomer 1] | > 30 µM |  | > 30 µM | IC50 (HCov OC43; [3]): > 30 µM
CC(C)(C)c1ccc(N(C(=O)[C@H]2Cc3ccccc3CN2C#N)C(C(=O)NC2CCCCC2)c2cccnc2)cc1 (single isomer, unassigned) [Compound 374 Isomer 1] | > 30 µM |  | > 30 µM | IC50 (HCov OC43; read-out: OC43 IC50 (uM) MEDIAN, median, listed as 374 Isomer 1): > 30 µM
CC(C)(C)c1ccc(N(C(=O)[C@H]2Cc3ccccc3CN2C#N)C(C(=O)NC2CCCCC2)c2cccnc2)cc1 (single isomer, unassigned) [Compound 374 Isomer 2] | < 2 µM |  | < 2 µM | IC50 (HCov OC43; read-out: OC43 IC50 (uM) MEDIAN, median, listed as 374 Isomer 2): 2 to 10 µM
COc1ccc(NC(=O)C(c2cccnc2)N(C(=O)[C@H]2CCCN2C#N)c2ccc(C(C)(C)C)cc2)cn1 (single isomer, unassigned) [Compound 407 Isomer 1] | < 2 µM |  | < 2 µM | IC50 (HCov OC43; read-out: OC43 IC50 (uM) MEDIAN, median, listed as 407 Isomer 1): 2 to 10 µM
COc1ccc(NC(=O)C(c2cccnc2)N(C(=O)[C@H]2CCCN2C#N)c2ccc(C(C)(C)C)cc2)cn1 (single isomer, unassigned) [Compound 407 Isomer 2] | > 30 µM |  | 10 to 30 µM | IC50 (HCov OC43; read-out: OC43 IC50 (uM) MEDIAN, median, listed as 407 Isomer 2): > 30 µM
CC(C)(C)c1ccc(N(C(=O)[C@H]2CCCN2C#N)C(C(=O)NCC2COC2)c2cccnc2)cc1 (single isomer, unassigned) [Compound 419 Isomer 2] | 2 to 10 µM | 2 to 10 µM |  | EC50 (229E Mpro; read-out: 229E Mpro EC50): < 2 µM
COC(C)(C)CNC(=O)C(c1cccnc1)N(C(=O)[C@H]1CCCN1C#N)c1ccc(C(C)(C)C)cc1 (single isomer, unassigned) [Compound 427 Isomer 1] | 10 to 30 µM |  | 2 to 10 µM | IC50 (HCov OC43; read-out: OC43 IC50 (uM) MEDIAN, median, listed as 427 Isomer 1): > 30 µM
CN(C)CCNC(=O)C(c1cccnc1)N(C(=O)[C@H]1CCCN1C#N)c1ccc(C(C)(C)C)cc1 (single isomer, unassigned) [Compound 435 Isomer 2] | 10 to 30 µM |  |  | IC50 (HCov OC43; read-out: OC43 IC50 (uM) MEDIAN, median, listed as 435 Isomer 2): 10 to 30 µM; EC50 (229E Mpro; read-out: 229E Mpro EC50): < 2 µM
CC(C)(C)c1ccc(N(C(=O)[C@H]2CCCN2C#N)C(C(=O)NCc2ccncc2)c2cccnc2)cc1 (single isomer, unassigned) [Compound 439 Isomer 1] | 2 to 10 µM |  | < 2 µM | IC50 (HCov OC43; [3]): 10 to 30 µM
CC(C)(C)c1ccc(N(C(=O)[C@H]2CCCN2C#N)C(C(=O)NCc2ccncc2)c2cccnc2)cc1 (single isomer, unassigned) [Compound 439 Isomer 2] | 2 to 10 µM | 10 to 30 µM |  | EC50 (229E Mpro; read-out: 229E Mpro EC50): < 2 µM
Cc1c[nH]c2cc(N(C(=O)[C@H]3C[C@@H](O)CN3C#N)C(C(=O)NC3CCC(F)(F)CC3)c3cncc(F)c3)ccc12 (single isomer, unassigned) [Compound 747b Isomer 2] | 2 to 10 µM | 2 to 10 µM |  | EC50 (229E Mpro; read-out: 229E Mpro EC50): < 2 µM
N#CN1C[C@H](O)C[C@@H]1C(=O)N(c1ccc(C2CC2)cc1F)C(C(=O)NC1CCCCC1)c1cccnc1 (single isomer, unassigned) [Compound 763 Isomer 1] | < 2 µM |  | < 2 µM | IC50 (HCov OC43; [3]): < 2 µM
